Among the data in BindingDB's records for doi:10.1021/jm800940u (Schering-Plough Research Institute, 2009) are Ki values, retold here.

Each structure is given as a SMILES string.

Sequence of Genome polyprotein (P27958 1027-1657 limits assumed): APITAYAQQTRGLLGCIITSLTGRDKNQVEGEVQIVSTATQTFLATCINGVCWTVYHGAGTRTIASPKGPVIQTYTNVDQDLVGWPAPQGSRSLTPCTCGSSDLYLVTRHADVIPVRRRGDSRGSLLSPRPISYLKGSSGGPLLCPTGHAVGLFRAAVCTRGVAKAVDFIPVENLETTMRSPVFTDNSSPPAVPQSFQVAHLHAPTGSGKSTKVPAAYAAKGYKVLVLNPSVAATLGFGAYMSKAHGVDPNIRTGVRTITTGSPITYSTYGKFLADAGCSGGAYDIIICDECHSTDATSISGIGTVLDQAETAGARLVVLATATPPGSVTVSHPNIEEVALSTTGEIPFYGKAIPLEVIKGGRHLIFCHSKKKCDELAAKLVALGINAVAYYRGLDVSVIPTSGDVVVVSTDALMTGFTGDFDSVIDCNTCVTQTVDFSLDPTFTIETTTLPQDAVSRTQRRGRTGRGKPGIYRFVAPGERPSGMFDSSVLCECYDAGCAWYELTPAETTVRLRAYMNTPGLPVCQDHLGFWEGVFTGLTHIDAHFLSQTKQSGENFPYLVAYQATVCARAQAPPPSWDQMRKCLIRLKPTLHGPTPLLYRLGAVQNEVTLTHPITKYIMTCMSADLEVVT

The assay has as its target Genome polyprotein (Hepatitis C virus genotype 1a (isolate H77), UniProt P27958). The assay is described as follows: Continuous Spectrophotometric Assay. The note with it: pH 6.5; 30 °C. The protocol: Proteolytic cleavage of the ester linkage between the Nva (L-norvaline) and the chromophore (PAP) was monitored for change in absorbance at 370 nm. Initial velocities were determined using linear regression and kinetic constants were obtained by fitting the data to the Michaelis-Menten equation.
Consider `CN(C[C@@H](NC(=O)N[C@H]1CCCCCCCCC[C@@H](C(=O)C(=O)NCC2CC2)NC(=O)[C@@H]2[C@@H]3[C@H](CN2C1=O)C3(C)C)C(C)(C)C)S(=O)(=O)c1cccs1` [N-(cyclopropylmethyl)-2-[(3S,13S,16S,17R,19S)-3-({[(2S)-3,3-dimethyl-1-[methyl(thiophene-2-)sulfonamido]butan-2-yl]carbamoyl}amino)-18,18-dimethyl-2,15-dioxo-1,14-diazatricyclo[14.4.0.0^{17,19}]icosan-13-yl]-2-oxoacetamide], for which affinity was put at a Ki of 21 nM.

On to `CC(C)(C)OC(=O)[C@@H](NC(=O)N[C@H]1CCCCCCCCCC[C@@H](C(=O)C(N)=O)NC(=O)[C@@H]2[C@@H]3[C@H](CN2C1=O)C3(C)C)C(C)(C)C` [tert-butyl (2S)-2-({[(3S,14S,17S,18R,20S)-14-(carbamoylcarbonyl)-19,19-dimethyl-2,16-dioxo-1,15-diazatricyclo[15.4.0.0^{18,20}]henicosan-3-yl]carbamoyl}amino)-3,3-dimethylbutanoate], for which the Ki was 37 nM.

For `C=CCCCC[C@H](NC(=O)[C@@H]1[C@@H]2[C@H](CN1C(=O)[C@H](CCCCC=C)NC(=O)OC(C)(C)C)C2(C)C)C(=O)C(N)=O` [tert-butyl N-[(2S)-1-[(1R,2S,5S)-2-{[(2S)-1-carbamoyl-1-oxooct-7-en-2-yl]carbamoyl}-6,6-dimethyl-3-azabicyclo[3.1.0]hexan-3-yl]-1-oxooct-7-en-2-yl]carbamate], the Ki is 250 nM.

On to `CN(C)C(=O)[C@@H](NC(=O)CNC(=O)C(=O)[C@@H]1CCCC/C=C/CCCC[C@H](NC(=O)OC(C)(C)C)C(=O)N2C[C@H]3[C@@H]([C@H]2C(=O)N1)C3(C)C)c1ccccc1` [tert-butyl N-[(3S,8E,14S,17S,18R,20S)-14-{[({[(S)-(dimethylcarbamoyl)(phenyl)methyl]carbamoyl}methyl)carbamoyl]carbonyl}-19,19-dimethyl-2,16-dioxo-1,15-diazatricyclo[15.4.0.0^{18,20}]henicos-8-en-3-yl]carbamate], for which the affinity corresponds to a Ki of 5 nM.

Turning to `CC(C)(C)OC(=O)N[C@H]1CCCCCCC[C@@H](C(=O)C(N)=O)NC(=O)[C@@H]2[C@@H]3[C@H](CN2C1=O)C3(C)C` [tert-butyl N-[(3S,11S,14S,15R,17S)-11-(carbamoylcarbonyl)-16,16-dimethyl-2,13-dioxo-1,12-diazatricyclo[12.4.0.0^{15,17}]octadecan-3-yl]carbamate], the affinity corresponds to a Ki of 210 nM.

As for `CC(C)(C)OC(=O)N[C@H]1CCCCCCCC[C@@H](C(=O)C(N)=O)NC(=O)[C@@H]2[C@@H]3[C@H](CN2C1=O)C3(C)C` [tert-butyl N-[(3S,12S,15S,16R,18S)-12-(carbamoylcarbonyl)-17,17-dimethyl-2,14-dioxo-1,13-diazatricyclo[13.4.0.0^{16,18}]nonadecan-3-yl]carbamate], affinity was put at a Ki of 36 nM.

In the case of `CC(C)(C)OC(=O)N[C@H]1CCCCCCCCC[C@@H](C(=O)C(N)=O)NC(=O)[C@@H]2[C@@H]3[C@H](CN2C1=O)C3(C)C` [tert-butyl N-[(3S,13S,16S,17R,19S)-13-(carbamoylcarbonyl)-18,18-dimethyl-2,15-dioxo-1,14-diazatricyclo[14.4.0.0^{17,19}]icosan-3-yl]carbamate], affinity was put at a Ki of 30 nM.

The compound `CC(C)(C)OC(=O)N[C@H]1CCCCCCCCCC[C@@H](C(=O)C(N)=O)NC(=O)[C@@H]2[C@@H]3[C@H](CN2C1=O)C3(C)C` [tert-butyl N-[(3S,14S,17S,18R,20S)-14-(carbamoylcarbonyl)-19,19-dimethyl-2,16-dioxo-1,15-diazatricyclo[15.4.0.0^{18,20}]henicosan-3-yl]carbamate] displayed a Ki of 59 nM.

With `CC(C)(C)OC(=O)N[C@H]1CCCCCCCCCC[C@@H](C(=O)C(=O)NCC(=O)NCc2ccccc2)NC(=O)[C@@H]2[C@@H]3[C@H](CN2C1=O)C3(C)C` [tert-butyl N-[(3S,14S,17S,18R,20S)-14-({[(benzylcarbamoyl)methyl]carbamoyl}carbonyl)-19,19-dimethyl-2,16-dioxo-1,15-diazatricyclo[15.4.0.0^{18,20}]henicosan-3-yl]carbamate], the Ki came out at 89 nM.

In turn, `CC(C)(C)NC(=O)C(=O)[C@@H]1CCCCCCCCCC[C@H](NC(=O)OC(C)(C)C)C(=O)N2C[C@H]3[C@@H]([C@H]2C(=O)N1)C3(C)C` [tert-butyl N-[(3S,14S,17S,18R,20S)-14-[(tert-butylcarbamoyl)carbonyl]-19,19-dimethyl-2,16-dioxo-1,15-diazatricyclo[15.4.0.0^{18,20}]henicosan-3-yl]carbamate] gave a Ki of 6000 nM.

Compound `CN(C)C(=O)[C@@H](NC(=O)CNC(=O)C(=O)[C@@H]1CCCCCCCCCC[C@H](NC(=O)OC(C)(C)C)C(=O)N2C[C@H]3[C@@H]([C@H]2C(=O)N1)C3(C)C)c1ccccc1` [tert-butyl N-[(3S,14S,17S,18R,20S)-14-{[({[(S)-(dimethylcarbamoyl)(phenyl)methyl]carbamoyl}methyl)carbamoyl]carbonyl}-19,19-dimethyl-2,16-dioxo-1,15-diazatricyclo[15.4.0.0^{18,20}]henicosan-3-yl]carbamate] had a Ki of 6 nM.
